Test results taken from patent publication US8772277B2, “Nitrogen-containing heterocyclic compound” (Takeda Pharmaceutical Company Limited, priority 2011, dated 2014).
Structures can show the parent of a compound that is named as a salt.

Experiments:
[1] = molecular target: T1, fusion protein containing GAL4-DNA-binding domain and ERR full-length (Homo sapiens, UniProt P11474); assay: Reporter assay system using 293T cells (GAL4-ERR luciferase, inverse agonist activity); format: cell-based; details: compound final concentration 3 μM, no compound = 0%, 10 μM XCT-790 = 100%; for inhibition at 3 µM: HEK-293T, read-out: inhibition rate (%) at 3 μM
T1 construct: expressed in transfected cells; host or cells: 293T cells
T1 sequence (P11474 1-423): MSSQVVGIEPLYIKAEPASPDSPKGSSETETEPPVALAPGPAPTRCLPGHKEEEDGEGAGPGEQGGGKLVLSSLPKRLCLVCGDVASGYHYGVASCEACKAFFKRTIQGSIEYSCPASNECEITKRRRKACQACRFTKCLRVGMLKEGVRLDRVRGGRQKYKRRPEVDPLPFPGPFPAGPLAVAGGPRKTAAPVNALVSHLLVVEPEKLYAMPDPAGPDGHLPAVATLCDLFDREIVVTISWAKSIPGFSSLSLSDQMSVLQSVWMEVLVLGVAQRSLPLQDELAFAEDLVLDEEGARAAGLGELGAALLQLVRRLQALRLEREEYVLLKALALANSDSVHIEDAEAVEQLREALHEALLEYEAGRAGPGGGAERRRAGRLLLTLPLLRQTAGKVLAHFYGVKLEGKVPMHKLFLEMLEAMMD
Procedure: Experimental Example 2 Compound Evaluation in Reporter Assay System Using 293T Cells
293T cells derived from human kidney were seeded in a 150 cm^2 flask by 6,000,000 cells, and cultured in a medium (DMEM medium containing 10% inactivated Fetal Bovine Serum sterile filtered (FBS), […] Gentamicin, 10 mM HEPES buffer (pH 7.4)) at 37° C. in the presence of 5% CO2 for 1 day.
Then, vector DNA having a gene encoding a fusion protein, containing GAL4-DNA-binding domain and ERR full-length and a vector DNA wherein luciferase gene is fused at the downstream of GAL4-binding-sequence were cotransfected by a lipofection method, and the cells were cultured at 37° C. in the presence of 5% CO2 for 1 day. The cells were recovered, sown in a 384 well plate by 15,000 cells, and cultured at 37° C. in the presence of 5% CO2 for 3 hrs. Furthermore, 50 μM N-[5-(trifluoromethyl)-1,3,4-thiadiazol-2-yl]-2-cyano-3-[3-methoxy-4-[2,4-di(trifluoromethyl)benzyloxy]phenyl]propenamide (XCT-790) (final concentration 10 μM) or 15 μM compound (final concentration 3 μM) was added, and the cells were cultured at 37° C. in the presence of 5% CO2 for 1 day. The luciferase activity was measured by using multiplate reader Envision (Perkin Elmer Inc.). The inverse agonist activity of the compound was calculated in percentage with the luciferase activity inhibited by no addition of compound as 0%, and with addition of final concentration 10 μM of XCT-790 as 100%.

[2] = molecular target: T2, GST-ERR-α ligand-binding domain (Homo sapiens, UniProt P11474); assay: HTRF assay system using ERR-α ligand-binding domain (inverse agonist activity, biotinylated SRC-1 (676-700) peptide); format: biochemical; details: compound final concentration 30 μM, 665/620 ratio, no compound = 0%, 10 μM XCT-790 = 100%; for inhibition at 30 µM: read-out: inhibition rate (%) at 30 μM
T2 sequence (P11474 193-421 limits assumed): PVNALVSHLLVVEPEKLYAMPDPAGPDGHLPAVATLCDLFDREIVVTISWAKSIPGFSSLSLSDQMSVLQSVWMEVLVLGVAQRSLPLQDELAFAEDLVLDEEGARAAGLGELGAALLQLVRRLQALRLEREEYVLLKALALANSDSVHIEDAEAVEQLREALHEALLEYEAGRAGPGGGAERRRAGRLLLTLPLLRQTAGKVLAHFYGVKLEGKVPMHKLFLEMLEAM
Procedure: Experimental Example 1 Compound Evaluation in HTRF Assay System Using ERR-α Ligand-Binding Domain
An assay buffer (25 mM HEPES, 100 mM NaCl, 1 mM DTT, 0.1% BSA) containing 5 nM GST-ERR-α ligand-binding domain (final concentration 1.25 nM) was added to a 384 well plate, then 40 μM N-[5-(trifluoromethyl)-1,3,4-thiadiazol-2-yl]-2-cyano-3-[3-methoxy-4-[2,4-di(trifluoromethyl)benzyloxy]phenyl]propenamide (XCT-790) (final concentration 10 μM), or 120 μM compound (final concentration 30 μM) was added. Furthermore, an assay buffer containing XL665 conjugated Streptavidin, Eu^3+ criptate conjugated GST antibody and 200 nM biotinylated SRC-1 (676-700) (final concentration 100 nM) was added, and the mixture was reacted at room temperature for 2 hr. Using Multiplate reader Envision (Perkin Elmer Inc.), after excitation at 320 nm, fluorescence values at 620 nm and 665 nm were measured. The inverse agonist activity of the compound was calculated in percentage with the 665/620 ratio value inhibited by no addition of compound as 0%, and with addition of final concentration 10 μM of XCT-790 as 100%.

| Compound | inhibition at 3 µM [1] [%] | inhibition rate (%) at 30 μM [2] [%] | inhibition rate (%) at 3 μM [1] [%] | inhibition at 30 µM [2] [%] |
| --- | --- | --- | --- | --- |
| CNC1=NC(=O)S/C1=C\C1CCN(Cc2ccc(C(F)(F)F)cc2C(F)(F)F)CC1 [Example 3, (5Z)-5-({1-[2,4-bis(trifluoromethyl)benzyl]piperidin-4-yl}methylidene)-4-(methylamino)-1,3-thiazol-2(5H)-one] | 88 | – | – | – |
| O=C1N=C(NCCOCCO)/C(=C/C2CCN(Cc3ccc(C(F)(F)F)cc3C(F)(F)F)CC2)S1 [Example 8, (5Z)-5-({1-[2,4-bis(trifluoromethyl)benzyl]piperidin-4-yl}methylidene)-4-{[2-(2-hydroxyethoxy)ethyl]amino}-1,3-thiazol-2(5H)-one] | – | 97 | 87 | – |
| CCN(CC)CCNC1=NC(=O)S/C1=C\C1CCN(Cc2ccc(C(F)(F)F)cc2C(F)(F)F)CC1 [Example 9, (5Z)-5-({1-[2,4-bis(trifluoromethyl)benzyl]piperidin-4-yl}methylidene)-4-{[2-(diethylamino)ethyl]amino}-1,3-thiazol-2(5H)-one dihydrochloride] | 88 | – | – | 107 |
| CNC1=NC(=O)S/C1=C\[C@@H]1C[C@H]2CC[C@@H](C1)N2Cc1ccc(C(F)(F)F)cc1C(F)(F)F [Example 15, (5Z)-5-({(3-exo)-8-[2,4-bis(trifluoromethyl)benzyl]-8-azabicyclo[3.2.1]oct-3-yl}methylidene)-4-(methylamino)-1,3-thiazol-2(5H)-one] | 88 | – | – | 102 |
| C#CCNC1=NC(=O)S/C1=C\C1CCN(Cc2ccc(C(F)(F)F)cc2C(F)(F)F)CC1 [Example 16, (5Z)-5-({1-[2,4-bis(trifluoromethyl)benzyl]piperidin-4-yl}methylidene)-4-(prop-2-yn-1-ylamino)-1,3-thiazol-2(5H)-one hydrochloride] | 89 | – | – | 112 |
| O=C1N=C(NC2COC2)/C(=C/C2CCN(Cc3ccc(C(F)(F)F)cc3C(F)(F)F)CC2)S1 [Example 20, (5Z)-5-({1-[2,4-bis(trifluoromethyl)benzyl]piperidin-4-yl}methylidene)-4-(oxetan-3-ylamino)-1,3-thiazol-2(5H)-one] | 95 | – | – | 105 |
| C#CCNC1=NC(=O)S/C1=C\C1CCN(Cc2ccc(Cl)cc2C(F)(F)F)CC1 [Example 24, (5Z)-5-({1-[4-chloro-2-(trifluoromethyl)benzyl]piperidin-4-yl}methylidene)-4-(prop-2-yn-1-ylamino)-1,3-thiazol-2(5H)-one fumarate] | 92 | – | – | 105 |
| CC(C)(O)CNC1=NC(=O)S/C1=C\C1CCN(Cc2ccc(C(F)(F)F)cc2C(F)(F)F)CC1 [Example 31, (5Z)-5-({1-[2,4-bis(trifluoromethyl)benzyl]piperidin-4-yl}methylidene)-4-[(2-hydroxy-2-methylpropyl)amino]-1,3-thiazol-2(5H)-one] | – | 101 | 87 | – |
| CNC1=NC(=O)S/C1=C\C1CCN(Cc2ccc(C(F)(F)F)cc2C(F)(F)F)CC1 [Example 37, (5Z)-5-({1-[2,4-bis(trifluoromethyl)benzyl]piperidin-4-yl}methylidene)-4-(methylamino)-1,3-thiazol-2(5H)-one fumarate] | – | – | – | 109 |
| COCCOCCNC1=NC(=O)S/C1=C\C1CCN(Cc2ccc(C(F)(F)F)cc2C(F)(F)F)CC1 [Example 39, (5Z)-5-({1-[2,4-bis(trifluoromethyl)benzyl]piperidin-4-yl}methylidene)-4-{[2-(2-methoxyethoxy)ethyl]amino}-1,3-thiazol-2(5H)-one] | 85 | – | – | 106 |
| C#CCNC1=NC(=O)S/C1=C\C1CCN(Cc2ccc(C#N)cc2C(F)(F)F)CC1 [Example 40, 4-[(4-{(Z)-[2-oxo-4-(prop-2-yn-1-ylamino)-1,3-thiazol-5(2H)-ylidene]methyl}piperidin-1-yl)methyl]-3-(trifluoromethyl)benzonitrile] | 62 | – | – | 73 |
| O=C1N=C(NC2CCOC2)/C(=C/C2CCN(Cc3ccc(C(F)(F)F)cc3C(F)(F)F)CC2)S1 (stereo not drawn) [Example 43, (5Z)-5-({1-[2,4-bis(trifluoromethyl)benzyl]piperidin-4-yl}methylidene)-4-(tetrahydrofuran-3-ylamino)-1,3-thiazol-2(5H)-one 0.5 fumarate] | 87 | – | – | 106 |
| CCN(CC)CCOCCNC1=NC(=O)S/C1=C\C1CCN(Cc2ccc(C(F)(F)F)cc2C(F)(F)F)CC1 [Example 47, (5Z)-5-({1-[2,4-bis(trifluoromethyl)benzyl]piperidin-4-yl}methylidene)-4-({2-[2-(diethylamino)ethoxy]ethyl}amino)-1,3-thiazol-2(5H)-one ditosylate] | 90 | – | – | 108 |
| O=C1N=C(NCC(O)CO)/C(=C/C2CCN(Cc3ccc(C(F)(F)F)cc3C(F)(F)F)CC2)S1 (stereo not drawn) [Example 56, (5Z)-5-({1-[2,4-bis(trifluoromethyl)benzyl]piperidin-4-yl}methylidene)-4-[(2,3-dihydroxypropyl)amino]-1,3-thiazol-2(5H)-one] | 91 | – | – | 106 |
| CN(CCO)CCNC1=NC(=O)S/C1=C\C1CCN(Cc2ccc(C(F)(F)F)cc2C(F)(F)F)CC1 [Example 58, (5Z)-5-({1-[2,4-bis(trifluoromethyl)benzyl]piperidin-4-yl}methylidene)-4-({2-[(2-hydroxyethyl)(methyl)amino]ethyl}amino)-1,3-thiazol-2(5H)-one ½fumarate] | 91 | – | – | 110 |
| C#CCNC1=NC(=O)S/C1=C\C1CCN(Cc2ccc(C(F)(F)F)cc2Cl)CC1 [Example 59, (5Z)-5-({1-[2-chloro-4-(trifluoromethyl)benzyl]piperidin-4-yl}methylidene)-4-(prop-2-yn-1-ylamino)-1,3-thiazol-2(5H)-one fumarate] | 67 | – | – | 49 |
| O=C1N=C(NCC2CC2)/C(=C/C2CCN(Cc3ccc(C(F)(F)F)cc3C(F)(F)F)CC2)S1 [Example 61, (5Z)-5-({1-[2,4-bis(trifluoromethyl)benzyl]piperidin-4-yl}methylidene)-4-[(cyclopropylmethyl)amino]-1,3-thiazol-2(5H)-one fumarate] | 90 | – | – | 95 |
| CC(C)(O)C#CCNC1=NC(=O)S/C1=C\C1CCN(Cc2ccc(C(F)(F)F)cc2C(F)(F)F)CC1 [Example 87, (5Z)-5-({1-[2,4-bis(trifluoromethyl)benzyl]piperidin-4-yl}methylidene)-4-[(4-hydroxy-4-methylpent-2-yn-1-yl)amino]-1,3-thiazol-2(5H)-one] | 88 | – | – | – |
